Results: patent US7485455B2, “Nucleic acid encoding sodium channel subunit” (Wisconsin Alumni Research Foundation, priority 2002, dated 2009)

Tested on: untransfected HEK cells (endogenous currents)
Details: incubation with mexiletine 100 μM for 24 hours, n=10, not significantly increased

In the case of `Cc1cccc(C)c1OCC(C)N` (stereo not shown) [mexiletine], the endogenous current density is reported as 1.1±0.4 pA/pF.
